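Each compound was tested at five concentrations against cells in 96-well plates for 48 hours. At the GI50, growth is halved. TGI: total growth inhibition.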
Assays:
Assay in all cases: NCI-60 cell line screen, 48 h; in the data active = GI50 below about 0.43 µM; inactive = the rest
786-0 renal = test system: 786-0 renal
A498 renal = test system: A498 renal
A549 NSCLC = test system: A549 NSCLC
ACHN renal = test system: ACHN renal
BT-549 breast = test system: BT-549 breast
CAKI-1 renal = test system: CAKI-1 renal
CCRF-CEM leukemia = test system: CCRF-CEM leukemia
COLO 205 colon = test system: COLO 205 colon
DU-145 prostate = test system: DU-145 prostate
EKVX NSCLC = test system: EKVX NSCLC
HCC-2998 colon = test system: HCC-2998 colon
HCT-116 colon = test system: HCT-116 colon
HCT-15 colon = test system: HCT-15 colon
HL-60(TB) leukemia = test system: HL-60(TB) leukemia
HOP-62 NSCLC = test system: HOP-62 NSCLC
HOP-92 NSCLC = test system: HOP-92 NSCLC
HS 578T breast = test system: HS 578T breast
HT29 colon = test system: HT29 colon
IGROV1 ovarian = test system: IGROV1 ovarian
K-562 leukemia = test system: K-562 leukemia
KM12 colon = test system: KM12 colon
LOX IMVI melanoma = test system: LOX IMVI melanoma
M14 melanoma = test system: M14 melanoma
MALME-3M melanoma = test system: MALME-3M melanoma
MCF7 breast = test system: MCF7 breast
MDA-MB-231 breast = test system: MDA-MB-231 breast
MDA-MB-435 = test system: MDA-MB-435
MOLT-4 leukemia = test system: MOLT-4 leukemia
NCI-H226 lung = test system: NCI-H226 lung
NCI-H23 lung = test system: NCI-H23 lung
NCI-H460 lung = test system: NCI-H460 lung
NCI-H522 lung = test system: NCI-H522 lung
OVCAR-3 ovarian = test system: OVCAR-3 ovarian
OVCAR-4 ovarian = test system: OVCAR-4 ovarian
OVCAR-5 ovarian = test system: OVCAR-5 ovarian
OVCAR-8 ovarian = test system: OVCAR-8 ovarian
PC-3 prostate = test system: PC-3 prostate
RPMI-8226 leukemia = test system: RPMI-8226 leukemia
RXF 393 renal = test system: RXF 393 renal
SF-268 CNS = test system: SF-268 CNS
SF-295 CNS = test system: SF-295 CNS
SF-539 CNS = test system: SF-539 CNS
SK-MEL-2 melanoma = test system: SK-MEL-2 melanoma
SK-MEL-28 melanoma = test system: SK-MEL-28 melanoma
SK-MEL-5 melanoma = test system: SK-MEL-5 melanoma
SK-OV-3 ovarian = test system: SK-OV-3 ovarian
SN12C renal = test system: SN12C renal
SNB-19 CNS = test system: SNB-19 CNS
SNB-75 CNS = test system: SNB-75 CNS
SR leukemia = test system: SR leukemia
SW-620 colon = test system: SW-620 colon
T-47D breast = test system: T-47D breast
TK-10 renal = test system: TK-10 renal
U251 CNS = test system: U251 CNS
UACC-257 melanoma = test system: UACC-257 melanoma
UACC-62 melanoma = test system: UACC-62 melanoma
UO-31 renal = test system: UO-31 renal

COc1cc(OC)c(/C=C/S(=O)(=O)Cc2ccc(OC)c(N)n2)c(OC)c1
> 85.9 µM: TGI (RPMI-8226 leukemia)
> 54.8 µM: TGI (HT29 colon)
< 0.01 µM: TGI (COLO 205 colon) | TGI (MDA-MB-435) | TGI (OVCAR-3 ovarian) | TGI (SF-539 CNS)
0.0116 µM: TGI (SK-MEL-5 melanoma)
< 0.0273 µM: TGI (HL-60(TB) leukemia)
inactive: GI50 (MALME-3M melanoma) > 100 µM | GI50 (T-47D breast) 57.3 µM | GI50 (TK-10 renal) > 100 µM | GI50 (UACC-257 melanoma) > 100 µM
> 100 µM: TGI (786-0 renal) | TGI (A549 NSCLC) | TGI (ACHN renal) | TGI (BT-549 breast) | TGI (CAKI-1 renal) | TGI (CCRF-CEM leukemia) | TGI (DU-145 prostate) | TGI (EKVX NSCLC) | TGI (HCC-2998 colon) | TGI (HCT-116 colon) | TGI (HCT-15 colon) | TGI (HOP-62 NSCLC) | TGI (HOP-92 NSCLC) | TGI (HS 578T breast) | TGI (IGROV1 ovarian) | TGI (K-562 leukemia) | TGI (KM12 colon) | TGI (LOX IMVI melanoma) | TGI (M14 melanoma) | TGI (MALME-3M melanoma) | TGI (MCF7 breast) | TGI (MDA-MB-231 breast) | TGI (MOLT-4 leukemia) | TGI (NCI-H226 lung) | TGI (NCI-H23 lung) | TGI (OVCAR-4 ovarian) | TGI (OVCAR-5 ovarian) | TGI (OVCAR-8 ovarian) | TGI (PC-3 prostate) | TGI (RXF 393 renal) | TGI (SF-268 CNS) | TGI (SF-295 CNS) | TGI (SK-MEL-2 melanoma) | TGI (SK-MEL-28 melanoma) | TGI (SK-OV-3 ovarian) | TGI (SN12C renal) | TGI (SNB-19 CNS) | TGI (SNB-75 CNS) | TGI (SR leukemia) | TGI (SW-620 colon) | TGI (T-47D breast) | TGI (TK-10 renal) | TGI (U251 CNS) | TGI (UACC-257 melanoma) | TGI (UACC-62 melanoma) | TGI (UO-31 renal)
active: GI50 (786-0 renal) < 0.01 µM | GI50 (A498 renal) < 0.01 µM | GI50 (A549 NSCLC) < 0.01 µM | GI50 (ACHN renal) < 0.01 µM | GI50 (BT-549 breast) < 0.01 µM | GI50 (CAKI-1 renal) < 0.01 µM | GI50 (CCRF-CEM leukemia) < 0.0157 µM | GI50 (COLO 205 colon) < 0.01 µM | GI50 (DU-145 prostate) < 0.01 µM | GI50 (EKVX NSCLC) 0.0278 µM | GI50 (HCC-2998 colon) < 0.0193 µM | GI50 (HCT-116 colon) < 0.01 µM | GI50 (HCT-15 colon) < 0.01 µM | GI50 (HL-60(TB) leukemia) < 0.01 µM | GI50 (HOP-62 NSCLC) < 0.01 µM | GI50 (HOP-92 NSCLC) 0.093 µM | GI50 (HS 578T breast) < 0.01 µM | GI50 (HT29 colon) < 0.0174 µM | GI50 (IGROV1 ovarian) < 0.0122 µM | GI50 (K-562 leukemia) < 0.01 µM | GI50 (KM12 colon) < 0.01 µM | GI50 (LOX IMVI melanoma) < 0.01 µM | GI50 (M14 melanoma) < 0.01 µM | GI50 (MCF7 breast) < 0.01 µM | GI50 (MDA-MB-231 breast) < 0.0248 µM | GI50 (MDA-MB-435) < 0.01 µM | GI50 (MOLT-4 leukemia) < 0.0214 µM | GI50 (NCI-H23 lung) < 0.0247 µM | GI50 (NCI-H460 lung) < 0.01 µM | GI50 (NCI-H522 lung) < 0.01 µM | GI50 (OVCAR-3 ovarian) < 0.01 µM | GI50 (OVCAR-4 ovarian) 0.0272 µM | GI50 (OVCAR-5 ovarian) < 0.0256 µM | GI50 (OVCAR-8 ovarian) < 0.018 µM | GI50 (PC-3 prostate) < 0.01 µM | GI50 (RPMI-8226 leukemia) < 0.0172 µM | GI50 (RXF 393 renal) < 0.01 µM | GI50 (SF-268 CNS) < 0.01 µM | GI50 (SF-295 CNS) < 0.01 µM | GI50 (SF-539 CNS) < 0.01 µM | GI50 (SK-MEL-5 melanoma) < 0.01 µM | GI50 (SK-OV-3 ovarian) < 0.01 µM | GI50 (SN12C renal) < 0.0171 µM | GI50 (SR leukemia) < 0.01 µM | GI50 (SW-620 colon) < 0.01 µM | GI50 (U251 CNS) < 0.01 µM | GI50 (UACC-62 melanoma) < 0.01 µM | GI50 (UO-31 renal) < 0.0126 µM
